Measured values as given in publication PMC3563359 (Nature communications, 2012).

How the values were obtained:
[1] = target: SK2-a channels (Rattus norvegicus, UniProt P0DP29+P70604); test: Potentiation of WT SK2-a channel currents, inside-out patch, TsA201 cells; assay type: cell-based
[2] = test system: EDHF-mediated responses; settings: cited from earlier work
[3] = cited from earlier work
[4] = ratio of EC50s, SK2-a, 200 nM Ca2+

Sequence of SK2-a channels (P70604 whole entry, one chain of several): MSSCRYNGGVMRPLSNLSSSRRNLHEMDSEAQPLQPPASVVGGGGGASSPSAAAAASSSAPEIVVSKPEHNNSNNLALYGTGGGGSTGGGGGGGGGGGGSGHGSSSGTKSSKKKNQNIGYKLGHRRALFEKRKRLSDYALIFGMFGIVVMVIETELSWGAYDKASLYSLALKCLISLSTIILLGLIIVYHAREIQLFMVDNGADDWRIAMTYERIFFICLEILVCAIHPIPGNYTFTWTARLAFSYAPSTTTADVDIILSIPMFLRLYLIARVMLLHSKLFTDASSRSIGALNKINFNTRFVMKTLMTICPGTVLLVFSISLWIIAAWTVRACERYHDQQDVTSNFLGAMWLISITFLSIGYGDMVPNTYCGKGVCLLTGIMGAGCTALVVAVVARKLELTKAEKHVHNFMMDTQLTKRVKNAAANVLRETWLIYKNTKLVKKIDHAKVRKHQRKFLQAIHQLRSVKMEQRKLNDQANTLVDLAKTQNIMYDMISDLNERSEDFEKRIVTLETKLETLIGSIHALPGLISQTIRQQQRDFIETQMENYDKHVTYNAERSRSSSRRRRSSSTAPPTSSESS

| EC50 [1] | Hill coefficient of potentiation of SK2-a channel activity ([1]; 200 nM Ca2+, inside-out patch) | fold less potent compared to NS309 [1, 4] | fold less potent than DCEBIO [1, 4] | SMILES | effect on EDHF-mediated responses [2] | effect on blood pressure [3] |
| --- | --- | --- | --- | --- | --- | --- |
| 1610 ± 200 µM | 1.81 ± 0.22 | more than 3600 fold | ~75 fold | NC(=O)Nc1ccccc1 [PHU, phenylurea] |  |  |
|  |  |  |  | Nc1nc2c(ccc3ccccc32)s1 [SKA-31, Naphtho[1,2-d]thiazol-2-ylamine] | enhances | lowers the blood pressure |
